Data set [1] concerns Neutrophil. Description: Antiinflammatory activity against human neutrophils assessed as inhibition of LPS-stimulated TNFalpha production at 10 ug/ml after 3 hrs by FACS analysis.
Data set [2] deals with Streptococcus mutans. Description: Antimicrobial activity against Streptococcus mutans ATCC 25175 at 125 to 500 ug/ml by time kill analysis. Type of data set: functional, organism-based. The note with it: TDE = time-dependent effect.
Data set [3] has as its system Streptococcus mutans. Description: Antimicrobial activity against Streptococcus mutans ATCC 25175 assessed as increase in membrane permeability at 1000 ug/ml after 30 mins by propidium iodide staining-based flow cytometry. The format is functional, organism-based.
Data set [4] deals with Fusobacterium nucleatum. Description: Antimicrobial activity against Fusobacterium nucleatum ATCC 10953 by turbidimetric analysis. The format is functional.
Data set [5] deals with Porphyromonas gingivalis. Briefly: Antimicrobial activity against Porphyromonas gingivalis ATCC 33277 by turbidimetric analysis. The format is functional.
Data set [6] relates to Actinomyces viscosus. Description: Antimicrobial activity against Actinomyces viscosus ATCC 15987 assessed as post antibiotic effect at 250 ug/ml. The format is functional.
For data set [7], the system named is Porphyromonas gingivalis. Briefly: Bactericidal activity against Porphyromonas gingivalis ATCC 33277 after 24 hrs by turbidimetric analysis. The format is functional. The note with it: ATCC 33277, 24 h.
Data set [8] has as its system Streptococcus sanguinis. Description: Bactericidal activity against Streptococcus sanguis ATCC 10556 after 24 hrs by turbidimetric analysis. Type of data set: functional. The following applies: ATCC 10556, 24 h.
Data set [9] concerns Neutrophil. Description: Antiinflammatory activity against human neutrophils assessed as inhibition of LPS-stimulated TNFalpha production at 5 ug/ml after 3 hrs by FACS analysis. Type of data set: functional, cell-based.
Data set [10] concerns Streptococcus mutans. Briefly: Antimicrobial activity against Streptococcus mutans ATCC 25175 after 12 hrs by time kill analysis. Type of data set: functional, organism-based.
The subject of data set [11] is Actinomyces viscosus. Briefly: Antimicrobial activity against Actinomyces viscosus ATCC 15987 assessed as post antibiotic effect at 2 times MIC. The format is functional.
Data set [12] deals with Actinomyces viscosus. Briefly: Bactericidal activity against Actinomyces viscosus ATCC 15987 after 24 hrs by turbidimetric analysis. The format is functional. The note with it: ATCC 15987, 24 h.
For data set [13], the system named is Streptococcus mutans. Description: Antimicrobial activity against Streptococcus mutans ATCC 25175 assessed as log reduction in bacterial growth at 250 ug/ml measured at 10 hrs by time kill analysis. The format is functional.
Data set [14] relates to Streptococcus sanguinis. Briefly: Antimicrobial activity against Streptococcus sanguis ATCC 10556 by turbidimetric analysis. Type of data set: functional.
The subject of data set [15] is Neutrophil. Briefly: Antiinflammatory activity against human neutrophils assessed as inhibition of LPS-stimulated TNFalpha production at 2.5 ug/ml after 3 hrs by FACS analysis. Type of data set: functional, cell-based.
In data set [16] the test system is Fusobacterium nucleatum. Briefly: Bactericidal activity against Fusobacterium nucleatum ATCC 10953 after 24 hrs by turbidimetric analysis. The note with it: ATCC 10953, 24 h. The format is functional.
Data set [17] can be described thus: Cytotoxicity against human neutrophils at 2.5 to 10 ug/ml after 3 hrs by MTT assay. Type of data set: cell-based. The following applies: neutrophil.
Data set [18] concerns Prevotella intermedia. Description: Antimicrobial activity against Prevotella intermedia ATCC 25611 by turbidimetric analysis. Type of data set: functional.
Data set [19] deals with Actinomyces viscosus. Briefly: Antimicrobial activity against Actinomyces viscosus ATCC 15987 assessed as increase in membrane permeability at 1000 ug/ml after 30 mins by propidium iodide staining-based flow cytometry. Type of data set: functional, organism-based.
Data set [20] has as its system Actinomyces viscosus. Briefly: Antimicrobial activity against Actinomyces viscosus ATCC 15987 assessed as inhibition of biofilm formation after 24 hrs by crystal violet staining. Type of data set: functional, organism-based. The following applies: ATCC 15987, 24 h.
Data set [21] deals with Enterococcus faecalis. Briefly: Bactericidal activity against Enterococcus faecalis ATCC 29212 after 24 hrs by turbidimetric analysis. The following applies: ATCC 29212, 24 h. Type of data set: functional.
The subject of data set [22] is Streptococcus mutans. Description: Antimicrobial activity against Streptococcus mutans ATCC 25175 assessed as inhibition of biofilm formation after 24 hrs by crystal violet staining. Type of data set: functional, organism-based. The note with it: ATCC 25175, 24 h.
In data set [23] the test system is Neutrophil. Briefly: Antiinflammatory activity against human neutrophils assessed as inhibition of LPS-stimulated TNFalpha production at 10 ug/ml after 3 hrs by FACS analysis. Type of data set: functional, cell-based.
For data set [24], the system named is Aggregatibacter actinomycetemcomitans. Briefly: Antimicrobial activity against Haemophilus actinomycetemcomitans ATCC 29522 by turbidimetric analysis. Type of data set: functional.
Data set [25] deals with Streptococcus mutans. Briefly: Antimicrobial activity against adherent cells of Streptococcus mutans ATCC 25175 at 1000 ug/ml. The format is functional, organism-based.
The species entered for data set [26] is Homo sapiens. Briefly: Toxicity in healthy human assessed as occurrence of tingling sensation. The format is organism-based. The note with it: in vivo.
The subject of data set [27] is Streptococcus mutans. Description: Antimicrobial activity against Streptococcus mutans ATCC 25175 assessed as post antibiotic effect at 250 ug/ml. Type of data set: functional.
Data set [28] concerns Streptococcus mutans. Briefly: Antimicrobial activity against Streptococcus mutans ATCC 25175 assessed as eradication of preformed biofilm after 24 hrs by crystal violet staining. The format is functional, organism-based. The note with it: ATCC 25175, 24 h.
The test system of data set [29] is Enterococcus faecalis. Description: Antimicrobial activity against Enterococcus faecalis ATCC 29212 by turbidimetric analysis. The format is functional.
Data set [30] concerns Streptococcus mutans. The following applies: ATCC 25175, 1000 ug/ml.
Description: Antimicrobial activity against adherent cells of Streptococcus mutans ATCC 25175 assessed as inhibition of water-insoluble glucan synthesis at 1000 ug/ml in presence of sucrose
Data set [31] has as its system Enterococcus faecium. Briefly: Antimicrobial activity against Enterococcus faecium ATCC 8042 by turbidimetric analysis. Type of data set: functional.
Data set [32] concerns Streptococcus mutans. Description: Antimicrobial activity against Streptococcus mutans ATCC 25175 assessed as post antibiotic effect at 2 times MIC. The format is functional.
The subject of data set [33] is Streptococcus mutans. Briefly: Antimicrobial activity against Streptococcus mutans ATCC 25175 by turbidimetric analysis. The format is functional.
In data set [34] the test system is Enterococcus faecium. Description: Bactericidal activity against Enterococcus faecium ATCC 8042 after 24 hrs by turbidimetric analysis. The note with it: ATCC 8042, 24 h. The format is functional.
For data set [35], the system named is Prevotella intermedia. Description: Bactericidal activity against Prevotella intermedia ATCC 25611 after 24 hrs by turbidimetric analysis. Type of data set: functional. The note with it: ATCC 25611, 24 h.
Data set [36] concerns Liver microsomes. Briefly: Antioxidant activity in rat liver microsomes assessed as reduction in lipid peroxidation at 10 to 100 ug/ml by thiobarbituric acid assay. The format is functional. The following applies: Microsome.
Data set [37] relates to Actinomyces viscosus. Description: Antimicrobial activity against Actinomyces viscosus ATCC 15987 by turbidimetric analysis. The format is functional.
Data set [38] deals with Streptococcus mutans. Briefly: Bactericidal activity against Streptococcus mutans ATCC 25175 after 24 hrs by turbidimetric analysis. Type of data set: functional. The following applies: ATCC 25175, 24 h.
Data set [39] is filed under the species Homo sapiens. Briefly: Toxicity in healthy human assessed as occurrence of after taste. The note with it: in vivo. Type of data set: organism-based.
Data set [40] has as its system Aggregatibacter actinomycetemcomitans. Description: Bactericidal activity against Haemophilus actinomycetemcomitans ATCC 29522 after 24 hrs by turbidimetric analysis. The format is functional. The note with it: ATCC 29522, 24 h.
In data set [41] the test system is Actinomyces viscosus. Briefly: Antimicrobial activity against Actinomyces viscosus ATCC 15987 assessed as eradication of preformed biofilm after 24 hrs by crystal violet staining. The format is functional, organism-based. The note with it: ATCC 15987, 24 h.

In brackets after ≈: the same amount, converted by molar mass. Activity calls are given as the source filed them. The calls are words filed in the database; no cut-off is given here.

For the compound `COc1ccc(C2CNC(=O)C2)cc1OC1CCCC1` (configuration not stated), the inhibition result in [1] is “Active”.
Turning to `C=CCc1ccc(O)c(O)c1` [HYDROXYCHAVICOL], the Activity entry in [2] is “tde”; in data set [10] it was “Dose-dependent effect”; in data set [17], “Non-toxic”; in [26], “Non-toxic”; in data set [39] it was “Non-toxic”. Moreover, the result in data set [3], in data set [19] and in [25] was Active. Moreover, the MIC in data set [4] came to 125 µg/mL (≈ 832 µM); in data set [5] it was 62.5 µg/mL (≈ 416 µM); in data set [14], 125 µg/mL (≈ 832 µM); in [18], 125 µg/mL (≈ 832 µM); in [24], 250 µg/mL (≈ 1660 µM); in [29], 250 µg/mL (≈ 1660 µM). For the same compound, the MIC in [31], in data set [33] and in data set [37] was 250 µg/mL (≈ 1660 µM) each time. Besides, the PAE was determined as 4 h in [6], 7 h in [11], 3.5 h in data set [27] and 6 h in data set [32]. In addition, the MBC in [7] was 62.5 µg/mL (≈ 416 µM); in data set [8], 125 µg/mL (≈ 832 µM); in data set [12], 500 µg/mL (≈ 3330 µM); in [16], 125 µg/mL (≈ 832 µM); in data set [21] it was 250 µg/mL (≈ 1660 µM); in data set [34], 500 µg/mL (≈ 3330 µM). For the same compound, the MBC is 125 µg/mL (≈ 832 µM) in [35], 500 µg/mL (≈ 3330 µM) in data set [38] and 500 µg/mL (≈ 3330 µM) in data set [40]. The inhibition entry in [9], in data set [15], in data set [23] and in data set [30] was “Active” each time. Also, the log reduction in data set [13] was determined as 3. For the same compound, the IC50 was 500 µg/mL (≈ 3330 µM) in data set [20], 500 µg/mL (≈ 3330 µM) in [22], 500 µg/mL (≈ 3330 µM) in [28] and 1000 µg/mL (≈ 6660 µM) in data set [41]. The inhibition in data set [36] was determined as 15%.
On to `Cc1ccc(C(C)C)c(O)c1` [THYMOL], for which the Activity entry in data set [17] is “Non-toxic”.
